Measured values as given in patent publication US7427598B2, “Post-natal administration of activity-dependent neurotrophic factor-derived polypeptides for enhancing learning and memory” (The United States of Americas as represented by the …, priority 2001, dated 2008).
Square brackets hold non-standard residues; d marks the D form. Ends that are not written are not given here.

Experiments:
[1] = rat, in vivo, inhaled or intranasal
Procedure: (§1) The specific activity was 50 Ci/mmol. The purity and identity of NAP was ascertained using high performance liquid chromatography (HPLC) Zorbax SB-C18 (250×4.6 mm) 5 μm, and elution with a 5-25% methanol gradient in 0.1% trifluoroacetic acid over 20 minutes and detection by UV at 220 nm and [^3H] detector β-Ram. Two and half microliter of a solution containing 1 mCi/ml were applied to each nostril of a (200-300 g) male Wistar rat. At designated time points, rats were sacrificed and tissues solubilized (100 mg in one ml Luma Solve, Lumac by., Landgraaf, Netherlands, Netherlands) at 55° C. for 12 hours. Radioactivity was determined following the addition of Optiflour (10 ml/100 mg, Packard, Groningen, Netherlands) in a beta scintillation counter.
(§2) For determination of intact NAP in the brain, cortical tissue was homogenized with phosphate buffered saline (PBS) at 4° C. (100 mg/1 ml) and the homogenate was submitted to a 10,000 g centrifugation (10 min.) at 4° C. The resulting supernatant was frozen at −80° C. and further subjected to HPLC (RP-18, Merck, 250×4 mm; 5 μm), employing a linear gradient established between 35% acetonitrile and 75% acetonitrile in water containing 0.1% trifluoroacetic acid (Gozes et al., Proc. Nati. Acad. Sci. U.S.A. 96:4143-4148 (1999)).

[2] = rat
Procedure: as §1, §2

[3] = Preliminary toxicology studies
[4] = system: neuroblastoma cell; details: buthionine sulfoximine induced; cited from earlier work
[5] = system: C57-B16J mice; assay: Morris water maze in male offspring after prenatal treatment of pregnant mice; type: in vivo, mouse; details: vs vehicle; for Latency to find the hidden platform, prenatal oral single peptide 40 μg: gavage on pregnancy day 8, 40 μg
Procedure: C57-B16J female mice (Jackson Labs) were kept under a 12 h light, 12 h dark regimen with food and water available at all times. The mice received humane animal care in compliance with the “Guideline for Care and Use of Experimental Animals.” Six week old females (21-24 grams) were mated with C57-B16J males for 4 h. The presence of a vaginal plug was considered day 0 pregnancy.
Animals were injected intraperitoneally on pregnancy day 8, or treated on pregnancy day 8 after 1 hour fast with gavage dose of ADNF polypeptides. NAP was diluted in 50 μl DMSO and diluted in filtered Dulbecco 's phosphate buffered saline (DPBS). SAL was dissolved and diluted in filtered DPBS. Control animals were treated with a vehicle (i.e., DPBS). All treatments were coded.
Delivery occurred on day 20, weaning on day 20 of life. Male offspring were eartagged with all identifying markers of coded treatments removed.
Only male mice were used for the water maze trials. Testing of mice began at 35-50 days, typically on day 38, twice daily (two trials) for 7 days.
Morris water maze test used is adapted from “repeated acquisition of a spatial navigation task in mice: Effects of spacing of trials and of unilateral middle cerebral artery occlusion” Klapdor & Van der Staay, Physiology & Behav. 63(5):903-909 (1998). A trial consists of attempting to find the hidden platform from 4 set points. Specifically, testing of mice began in the mornings, typically between 9 and 9:30. Consistent timing is important to any behavioral study. Testing of mice was performed in a random order to prevent chronological bias by the researcher. Maze was set up the day before, to allow water time to adjust to room temperature. 100-150 ml of non-toxic white tempura is added and mixed. […]
On days 2-7, mice are only given 15 seconds on the platform before the initial trial. […] The daily average escape latency is calculated and plotted along the 7 day period for test administration. […]

[6] = Biodistribution and intactness of [3H]-NAP following intranasal administration
[7] = system: AF64A-treated rats; assay: Water maze (two daily tests, hidden platform) in AF64A cholinotoxicity rats, intranasal peptide; type: in vivo, rat; details: 1 μg peptide intranasal daily, vs AF64A-vehicle
Procedure: Rats were subjected to two daily tests in a water maze, including a hidden platform (Morris, R., J. Neurosci. Methods 11:47-60 (1984); Gordon et al., Neurosci. Lett. 199:1-4 (1995); Gozes et al., J Neurobiol. 33:329-342. (1997a)). Every day for the first test, both the platform and the animal were situated in a new location with regards to the pool (with the pool being immobile).
The experiment was performed as follows: the animal was positioned on the platform for 0.5 min., then placed in the water. The time required to reach the platform (indicative of learning and intact reference memory) was measured (first test). […] The time required to reach the platform in the second trial was recorded, indicative of short-term (working) memory. […]
After a week of peptide treatment, the animals were subjected to two daily tests in the water maze (as above). […] To avoid bias related to changes in motor activity in the various treatment groups, a probe trial test that assessed spatial memory was also utilized as follows. After four days of training and testing, the platform was removed and on day 5 the animals were subjected to swimming in the pool (120 sec) without the platform; in these experiments, the time spent in the quadrant of the pool where the platform used to be was recorded. […]

[8] = system: apolipoprotein E-deficient mice; details: injection to newborn mice, short-term memory in three-week-old pups; cited from earlier work
[9] = system: AF64A-treated rats; assay: Probe trial (platform removed, time in platform quadrant) in rats; type: in vivo, rat; details: AF64A-treated rats given peptide intranasally vs AF64A-vehicle, 120 sec swim, p<0.001
Excerpt: After a week of peptide treatment, the animals were subjected to two daily tests in the water maze (as above). During the test-period, animals were also given an intranasal administration of peptide or vehicle (carrier) an hour before the daily tests. To avoid bias related to changes in motor activity in the various treatment groups, a probe trial test that assessed spatial memory was also utilized as follows. After four days of training and testing, the platform was removed and on day 5 the animals were subjected to swimming in the pool (120 sec) without the platform; in these experiments, the time spent in the quadrant of the pool where the platform used to be was recorded. Measurements were performed using the HVS video tracking system (HVS Image Ltd. Hampton, UK).

[10] = storage at temperatures <4° C.; cited from earlier work

## CC[C@H](C)[C@H](NC(=O)[C@H](CO)NC(=O)[C@@H](NC(=O)[C@@H]1CCCN1C(=O)[C@H](C)NC(=O)[C@@H](N)CC(N)=O)C(C)C)C(=O)N1CCC[C@H]1C(=O)N[C@@H](CCC(N)=O)C(=O)O [NAP, Asn-Ala-Pro-Val-Ser-Ile-Pro-Gln]
[1]
  half-life: ~15 min
[2]
  In vivo metabolism by HPLC analysis: metabolized in vivo to multiple fragments
[2]; in vivo
  Fraction of material intact in the brain, 30 min: at least 12%
  Total material eluted from the HPLC column, cortex, 30 min: 807.8 fmole/g tissue
  Total material eluted from the HPLC column, cortex, 60 min: 1198.9 fmoles/g tissue
[3]
  Toxic effects: no toxic effects

## CCCCS(=N)(=O)CCC(N)C(=O)O (stereo not drawn) [buthionine sulfoximine, Buthionine sulfoximine]
[4]
  Decrease in neuroblastoma cell viability: 70-90%

## D-NAP: NAP (NAPVSIPQ) made of D-amino acids, for oral administration
[5]
  Latency to find the hidden platform, prenatal oral single peptide 40 μg: trend of faster latencies

## D-SAL: SAL (SALLRSIPA) made of D-amino acids, for oral administration ([dS][dA][dL][dL][dR][dS][dI][dP][dA])
[5]
  Latency to find the hidden platform, prenatal oral single peptide 40 μg: trend of faster latencies
[5]; gavage on pregnancy day 8, 80 μg
  Latency to find the hidden platform, prenatal oral double dose 80 μg: perform similarly to the control animals

## NAP, propyl 3-3,4-[^3H] [[^3H]-NAP]
[6]; following intranasal administration
  Time of highest total radioactivity in the brain (cortex): 60 min
[6]; intranasal 22.75 pmole per rat, compared with 91 fmoles/g assumed for homogeneous distribution
  Radioactivity found (calculated as NAP per g tissue): 45 fmoles/g tissue
[6]; intranasal [3H]-NAP, thirty minutes after administration
  Organ distribution of total radioactivity: highest levels in the intestine

## SALLRSIPA [ADNF-9]
[7]; NAP difference on fourth day of testing (p<0.041)
  Latency to reach the hidden platform, first daily test (reference memory): apparent insignificant improvement
[7]; p<0.001
  Latency to reach the hidden platform, second daily test (short-term memory): significant improvements and reduced latencies
[8]
  Amelioration/prevention of memory deficits in apolipoprotein E-deficient mice: less effective than NAP
[9]
  Time spent in the quadrant of the pool where the platform was previously positioned (probe trial, day 5): significantly increased
[10]
  Biological activity of PBS solutions upon storage: lost biological activity
